Results on 40 molecules are retold here after US12662469B2 (SIRONAX LTD, priority 2018, dated 2026).

In general, EC50 refers to the midpoint of the concentration-response curve.

One experiment has as its system Cell Necrosis. The experiment is described as follows: Cell necrosis assay / cell viability assay (necrosis inhibitor activity). Type of experiment: cell-based. Particulars: necrosis inhibitor activity; EC data for 14-191 extrapolated; read-out: EC50.
Take `O=C(N1CC(Oc2cc(F)ccc2F)C1)N1N=CCC1c1ccccc1` (stereo not shown) [Compound 128, (3-(2,5-difluorophenoxy)azetidin-1-yl)(5-phenyl-4,5-dihydro-1H-pyrazol-1-yl)methanone]: the EC50 was 0.001 to 1 µM.

In the case of `O=C(NC1CCN(c2ncccn2)C1)N1N=CCC1c1ccccc1` (stereo not shown) [Compound 22], the EC50 is 1 to 10 µM.

On to `O=C(N1CC(=Cc2ccc(F)cc2)C1)N1N=CCC1c1cc(F)cc(F)c1` (stereo not shown) [Compound 57, (5-(3,5-difluorophenyl)-4,5-dihydro-1H-pyrazol-1-yl)(3-(4-fluorobenzylidene)azetidin-1-yl)methanone], for which the EC50 was 0.001 to 1 µM.

Turning to `O=C(N1CC(Oc2ccc(F)cc2F)C1)N1N=CC[C@H]1c1cc(F)cc(F)c1` [Compound 142], the EC50 was 0.001 to 1 µM.

For `O=C(N1CC(Oc2cnccn2)C1)N1N=CCC1c1ccccc1` (stereo not shown) [Compound 119, (5-phenyl-4,5-dihydro-1H-pyrazol-1-yl)(3-(pyrazin-2-yloxy)azetidin-1-yl)methanone], the EC50 is 0.001 to 1 µM.

For the molecule `O=C(N1CC(Oc2ccccc2)C1)N1N=CCC1c1ccccc1` (stereo not shown) [Compound 59], the EC50 was 0.001 to 1 µM.

As to `Cc1cnc(N2CCN(C(=O)N3N=CCC3c3ccccc3)CC2)s1` (stereo not shown) [Compound 106, (4-(5-methylthiazol-2-yl)piperazin-1-yl)(5-phenyl-4,5-dihydro-1H-pyrazol-1-yl)methanone], the EC50 is 1 to 10 µM.

Consider `NC(=O)c1cccc(OC2CN(C(=O)N3N=CCC3c3cc(F)cc(F)c3)C2)c1` (stereo not shown) [Compound 129, 3-((1-(5-(3,5-difluorophenyl)-4,5-dihydro-1H-pyrazole-1-carbonyl)azetidin-3-yl)oxy)benzamide], for which the EC50 is 0.001 to 1 µM.

For the molecule `O=C(N1CC(=Cc2ccc(Cl)cc2F)C1)N1N=CCC1c1cc(F)cc(F)c1` (stereo not shown) [Compound 138], the EC50 is 0.001 to 1 µM.

As for `O=C(N1CC(=Cc2ccc(F)cc2)C1)N1N=CCC1c1ccccc1` (stereo not shown) [Compound 46, (3-(4-fluorobenzylidene)azetidin-1-yl)(5-phenyl-4,5-dihydro-1H-pyrazol-1-yl)methanone], the EC50 is 0.001 to 1 µM.

Regarding `O=C(N1CC(Oc2ccc3ccc(=O)[nH]c3c2)C1)N1N=CCC1c1cc(F)cc(F)c1` (stereo not shown) [Compound 189], the EC50 is 0.001 to 1 µM.

`O=C(N1CC(Oc2scc3c(=O)[nH]cnc23)C1)N1N=CCC1c1cc(F)cc(F)c1` (stereo not shown) [Compound 169]: the EC50 was 0.001 to 1 µM.

Consider `O=C(N1CCN(c2ccc(F)cn2)CC1)N1N=CCC1c1ccccc1` (stereo not shown) [Compound 85, (4-(5-fluoropyridin-2-yl)piperazin-1-yl)(5-phenyl-4,5-dihydro-1H-pyrazol-1-yl)methanone], for which the EC50 was 0.001 to 1 µM.

Regarding `O=C(N1CC(=Cc2cccc(F)c2)C1)N1N=CCC1c1ccccc1` (stereo not shown) [Compound 45, (3-(3-fluorobenzylidene)azetidin-1-yl)(5-phenyl-4,5-dihydro-1H-pyrazol-1-yl)methanone], the EC50 was 0.001 to 1 µM.

Turning to `O=C(N1CC(Cc2ccccc2)C1)N1N=CCC1c1ccccc1` (stereo not shown) [Compound 16, (3-benzylazetidin-1-yl)(5-phenyl-4,5-dihydro-1H-pyrazol-1-yl)methanone], the 50% effective concentration (EC50) is 0.001 to 1 µM.

`CNC(=O)c1cc(OC2CN(C(=O)N3N=CCC3c3cc(F)cc(F)c3)C2)ccc1F` (stereo not shown) [Compound 162]: the EC50 is 0.001 to 1 µM.

Consider `O=C(N1CC(Cc2ccccc2F)C1)N1N=CCC1c1ccccc1` (stereo not shown) [Compound 40, (3-(2-fluorobenzyl)azetidin-1-yl)(5-phenyl-4,5-dihydro-1H-pyrazol-1-yl)methanone], for which the EC50 is 0.001 to 1 µM.

Regarding `NC(=O)c1cc(OC2CN(C(=O)N3N=CCC3c3cc(F)cc(F)c3)C2)ccc1F` (stereo not shown) [Compound 159], the EC50 is 0.001 to 1 µM.

For `N#Cc1csc(OC2CN(C(=O)N3N=CCC3c3ccccc3)C2)n1` (stereo not shown) [Compound 121, 2-((1-(5-phenyl-4,5-dihydro-1H-pyrazole-1-carbonyl)azetidin-3-yl)oxy)thiazole-4-carbonitrile], the EC50 is 0.001 to 1 µM.

The experiment is the same for the next values; noted with them: necrosis inhibitor activity; compounds outside 14-191; read-out: EC50.
On to `O=C1Cc2ccc(OC3CN(C(=O)N4N=CC[C@H]4c4cc(F)cc(F)c4)C3)cc2N1` [Compound 209, (S)-6-((1-(5-(3,5-difluorophenyl)-4,5-dihydro-1H-pyrazole-1-carbonyl)azetidin-3-yl)oxy)indolin-2-one], for which the EC50 fell in the range of 0.001 to 1 µM.

Regarding `CC1Oc2cc(F)c(OC3CN(C(=O)N4N=CC[C@H]4c4cc(F)cc(C#N)c4)C3)cc2NC1=O` (stereo partly drawn) [Compound 351, 3-fluoro-5-((5S)-1(3-((7-fluoro-2-methyl-3-oxo-3,4-dihydro-2H-benzo[b][1,4]oxazin-6-yl)oxy)azetidine-1-carbonyl)-4,5-dihydro-1H-pyrazol-5. yl)benzonitrile], the EC50 lay within 0.001 to 1 µM.

For the molecule `O=C(N1CC(=Cc2ccc(Cl)nc2Cl)C1)N1N=CC[C@H]1c1cc(F)cc(F)c1` [Compound 316, (S)-(3-((2,6-dichloropyridin-3-yl)methylene)azetidin-1-yl)(5-(3,5-difluorophenyl)-4,5-dihydro-1H-pyrazol-1-yl)methanone], the EC50 was in the range of 0.001 to 1 µM.

With `COc1nc(N2CCN(C(=O)N3N=CC[C@H]3c3cc(F)cc(F)c3)CC2)ncc1F` [Compound 271, (S)-(5-(3,5-difluorophenyl)-4,5-dihydro-1H-pyrazol-1-yl)(4-(5-fluoro-4-methoxypyrimidin-2-yl)piperazin-1-yl)methanone], the concentration for a half-maximal effect (EC50) was 0.001 to 1 µM.

On to `O=C(N1CCN(c2ncc3cn[nH]c3n2)CC1)N1N=CC[C@H]1c1cc(F)cc(F)c1` [Compound 260, (S)-(4-(1H-pyrazolo[3,4-d]pyrimidin-6-yl)piperazin-1-yl)(5-(3,5-difluorophenyl)-4,5-dihydro-1H-pyrazol-1-yl)methanone], for which the EC50 fell in the range of 0.001 to 1 µM.

Regarding `CC1Oc2ccc(OC3CN(C(=O)N4N=CC[C@H]4c4cc(F)cc(F)c4)C3)cc2NC1=O` (stereo partly drawn) [Compound 353, 6-((1-((S)-5-(3,5-difluorophenyl)-4,5-dihydro-1H-pyrazole-1-carbonyl)azetidin-3-yl)oxy)-2-methyl-2H-benzo[b][1,4]oxazin-3(4H)-one], the EC50 is 0.001 to 1 µM.

Turning to `O=C(N1CC(=Cc2ccc(F)cc2Cl)C1)N1N=CC[C@H]1c1cc(F)cc(F)c1` [Compound 312, (S)-(3-(2-chloro-4-fluorobenzylidene)azetidin-1-yl)(5-(3,5-difluorophenyl)-4,5-dihydro-1H-pyrazol-1-yl)methanone], the EC50 was 0.001 to 1 µM.

For `N#Cc1cc(F)cc(OC2CN(C(=O)N3N=CC[C@H]3c3cc(F)cc(F)c3)C2)c1` [Compound 237, (S)-3-((1-(5-(3,5-difluorophenyl)-4,5-dihydro-1H-pyrazole-1-carbonyl)azetidin-3-yl)oxy)-5-fluorobenzonitrile], the EC50 was in the range of 0.001 to 1 µM.

Take `O=C(N1CC(=Cc2cnc3cn[nH]c3c2)C1)N1N=CC[C@H]1c1cc(F)cc(F)c1` [Compound 315, (S)-(3-((1H-pyrazolo[4,3-b]pyridin-6-yl)methylene)azetidin-1-yl)(5-(3,5-difluorophenyl)-4,5-dihydro-1H-pyrazol-1-yl)methanone]: the EC50 lay within 0.001 to 1 µM.

Take `O=C(N1CCCC1)N1N=CCC1c1ccccc1` (stereo not shown) [Compound 6, (5-phenyl-4,5-dihydro-1H-pyrazol-1-yl)(pyrrolidin-1-yl)methanone]: the EC50 lay in the range of 0.001 to 1 µM.

On to `CC(=O)Nc1cccc(OC2CN(C(=O)N3N=CCC3c3cc(F)cc(F)c3)C2)c1` (stereo not shown) [Compound 228, N-(3-((1-(5-(3,5-difluorophenyl)-4,5-dihydro-1H-pyrazole-1-carbonyl)azetidin-3-yl)oxy)phenyl)acetamide], for which the EC50 lay within 0.001 to 1 µM.

Regarding `O=C(N1CC(=Cc2cc3[nH]c(=O)oc3cc2F)C1)N1N=CC[C@H]1c1cc(F)cc(F)c1` [Compound 372, (S)-5-((1-(5-(3,5-difluorophenyl)-4,5-dihydro-1H-pyrazole-1-carbonyl)azetidin-3-yildene)methyl)-6-fluorobenzo[d]oxazol-2(3H)-one], the EC50 lay within 0.001 to 1 µM.

`O=C(N1CC(Oc2ccc3ccc(=O)[nH]c3c2)C1)N1N=CCC1c1cc(F)cc(F)c1` (stereo not shown) [Compound 204, 7-((1-(5-(3,5-difluorophenyl)-4,5-dihydro-1H-pyrazole-1-carbonyl)azetidin-3-yl)oxy)quinolin-2(1H)-one]: the EC50 was 0.001 to 1 µM.

As to `N#Cc1cc(O[C@@H]2CCN(C(=O)N3N=CC[C@H]3c3cc(F)cc(F)c3)C2)ccc1F` [Compound 342, 5-(((R)-1-((S)-5-(3,5-difluorophenyl)-4,5-dihydro-1H-pyrazole-1-carbonyl)pyrrolidin-3-yl)oxy)-2-fluorobenzonitrile], the EC50 was in the range of 0.001 to 1 µM.

On to `O=C(NC1CCCC1)N1N=CCC1c1ccccc1` (stereo not shown) [Compound 5, N-cyclopentyl-5-phenyl-4,5-dihydro-1H-pyrazole-1-carboxamide], for which the EC50 was in the range of 0.001 to 1 µM.

Consider `Nc1ccn(CC2CN(C(=O)N3N=CC[C@H]3c3cc(F)cc(F)c3)C2)c1` [Compound 298, (S)-(3-((3-amino-H-pyrrol-1-yl)methyl)azetidin-1-yl)(5-(3,5-difluorophenyl)-4,5-dihydro-1H-pyrazol-1-yl)methanone], for which the EC50 fell in the range of 0.001 to 1 µM.

Regarding `O=C(Nc1nc(N2CCN(C(=O)N3N=CC[C@H]3c3cc(F)cc(F)c3)CC2)ncc1F)C1CC1` [Compound 226, (S)—N-(2-(4-(5-(3,5-difluorophenyl)-4,5-dihydro-1H-pyrazole-1-carbonyl)piperazin-1-yl)-5-fluoropyrimidin-4-yl)cyclopropanecarboxamide], the EC50 is 0.001 to 1 µM.

On to `CC1CCCC(NC(=O)N2N=CCC2c2ccccc2)C1` (stereo not shown) [Compound 11, N-(3-methylcyclohexyl)-5-phenyl-4,5-dihydro-1H-pyrazole-1-carboxamide], for which the concentration giving a half-maximal response (EC50) lay in the range of 0.001 to 1 µM.

As for `CNC(=O)c1ccc(OC2CN(C(=O)N3N=CC[C@H]3c3cc(F)cc(F)c3)C2)cc1` [Compound 218, (S)-4-((1-(5-(3,5-difluorophenyl)-4,5-dihydro-1H-pyrazole-1-carbonyl)azetidin-3-yl)oxy)-N-methylbenzamide], the EC50 lay in the range of 0.001 to 1 µM.

For `O=C(N1CC(Nc2ccc(F)cc2F)C1)N1N=CCC1c1cc(F)cc(F)c1` (stereo not shown) [Compound 255, (5-(3,5-difluorophenyl)-4,5-dihydro-1H-pyrazol-1-yl)(3-((2,4-difluorophenyl)amino)azetidin-1-yl)methanone], the EC50 was 0.001 to 1 µM.

Regarding `O=C(N1CC(=Cc2ccc3[nH]cnc3c2)C1)N1N=CC[C@H]1c1cc(F)cc(F)c1` [Compound 284], the EC50 is 0.001 to 1 µM.
